The subject of data set [1] is A2058. Nature of the data set: Cancer cell direct cytotoxicity assay (CellTiter-Glo), A2058. The format is cell-based. Conditions: Homo sapiens; A2058, 96 h, free compound; read-out: Compound X50. How it is done: (§1) Bystander activity of ADCs was evaluated using Renca cancer cells and THP1-Dual™ cells (InvivoGen) which contain an IRF-Lucia luciferase reporter. Cells were cultured in RPMI-1640 (Gibco) with 10% heat-inactivated fetal bovine serum, Pen-Strep (100 U/ml-100 μg/ml, Gibco), HEPES (10 mM, Gibco), sodium pyruvate (1 mM, Gibco), MEM non-essential amino acids (1×, Gibco), GlutaMAX (1×, Gibco), and beta-mercaptoethanol (55 μM, Gibco). Renca cells were plated in a 96-well flat bottom tissue culture-treated clear polystyrene plate (Corning Costar #3596) at 50,000 cells per well in 100 μL. On the day following the initial plating, 50,000 THP1-Dual™ cells were added to each well with the indicated concentration of ADC in a total volume of 200 μL. Supernatant was harvested at 48 hours post addition of the THP1-Dual™ cells. To measure Lucia reporter signal, 10 μL of supernatant was combined with 40 μL of QUANTI-Luc™ Luminescence assay reagent (Invivogen PN: rep-qlc1) in a 96-well clear flat bottom tissue culture-treated black polystyrene plate (Corning Costar PN: 3603) and read on a Perkin Elmer Envision plate reader. In some experiments, HEK 293T cells engineered to express a murine protein typically expressed by immune cells (target antigen C— an immune cell antigen) were plated as above instead of Renca tumor cells. Cancer Cell Direct Cytotoxicity Assay
(§2) Cancer cells were counted and plated in 40 μL complete growth media in 384-well, white-walled tissue culture treated plates (Corning). Cell plates were incubated at 37° C. and with 5% CO2 overnight to allow the cells to equilibrate. Stock solutions containing ADCs or free drugs were serially diluted in RPMI-1640+20% fetal bovine serum (FBS). 10 μL of each concentration were then added to each cell plate in duplicate. Cells were then incubated at 37° C. and with 5% CO2 for 96 hours, upon which, the cell plates were removed from the incubator and allowed to cool to room temperature for 30 minutes prior to analysis. […] The luminescence of the samples was measured using an EnVision Multimode plate reader (Perkin Elmer, Waltham, MA). […]

For data set [2], the system named is MOLM-13. Kind of data set: Cancer cell direct cytotoxicity assay (CellTiter-Glo), MOLM-13. The format is cell-based. Conditions: Homo sapiens; MOLM-13, 96 h, free compound; read-out: Compound X50. As to the method: as §1, §2
The test system of data set [3] is DEL. Kind of data set: Cancer cell direct cytotoxicity assay (CellTiter-Glo), DEL. The format is cell-based. Conditions: Homo sapiens, 96 h, free compound, read-out: Compound X50. How it is done:
as §1, §2

For data set [4], the system named is 786-O. Kind of data set: Cancer cell direct cytotoxicity assay (CellTiter-Glo), 786-O. The format is cell-based. Conditions: Homo sapiens, 786-0, 96 h, free compound, read-out: Compound X50. As to the method: as §1, §2
Data set [5] has as its system Ls174T. Kind of data set: Cancer cell direct cytotoxicity assay (CellTiter-Glo), Ls174T. In kind it is cell-based. Conditions: Homo sapiens, 96 h, free compound, read-out: Compound X50. As to the method:
as §1, §2

Data set [6] deals with DELBVR. Kind of data set: Cancer cell direct cytotoxicity assay (CellTiter-Glo), DELBVR. The format is cell-based. Conditions: Homo sapiens, 96 h, free compound, read-out: Compound X50. As to the method: as §1, §2
Data set [7] deals with Karpas299. Kind of data set: Cancer cell direct cytotoxicity assay (CellTiter-Glo), Karpas299. In kind it is cell-based. Conditions: Homo sapiens, KARPAS-299; Karpas299, 96 h, free compound; read-out: Compound X50. As to the method: as §1, §2
Data set [8] concerns SU-DHL-4. Kind of data set: Cancer cell direct cytotoxicity assay (CellTiter-Glo), SU-DHL-4. The format is cell-based. Conditions: Homo sapiens; SU-DHL-4, 96 h, free compound; read-out: Compound X50. How it is done:
as §1, §2

Data set [9] has as its system THP1-Dual™ reporter cells. Kind of data set: THP1-Dual cell reporter assay (IRF-Lucia luciferase reporter). Conditions: 24 h, free compounds, 24 h, Lucia reporter signal, read-out: EC50. The format is cell-based, human. Put shortly: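 THP1-Dual monocytic cells (~100,000/well) were exposed to compound for 24 h (ADCs 48 h). Secreted IRF-driven Lucia luciferase in the supernatant was quantified by QUANTI-Luc luminescence.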

Data set [10] has as its system L540cy. Nature of the data set: Cancer cell direct cytotoxicity assay (CellTiter-Glo), L540cy. In kind it is cell-based. Conditions: Homo sapiens, 96 h, free compound, read-out: Compound X50. As to the method: as §1, §2
For data set [11], the system named is MDAMB231. Nature of the data set: Cancer cell direct cytotoxicity assay (CellTiter-Glo), MDAMB231. The format is cell-based. Conditions: Homo sapiens, MDA-MB-231; MDAMB231, 96 h, free compound; read-out: Compound X50. As to the method:
as §1, §2

For data set [12], the system named is BxPC3. Kind of data set: Cancer cell direct cytotoxicity assay (CellTiter-Glo), BxPC3. In kind it is cell-based. Conditions: Homo sapiens, BXPC-3; BxPC3, 96 h, free compound; read-out: Compound X50. As to the method:
as §1, §2

For data set [13], the system named is human cancer cell lines. Kind of data set: Cancer cell direct cytotoxicity assay, panel statement. The format is cell-based. Conditions: panel of human cancer cell lines. As to the method: as §1
Cancer cells were counted and plated in 40 μL complete growth media in 384-well, white-walled tissue culture treated plates (Corning). Cell plates were incubated at 37° C. and with 5% CO2 overnight to allow the cells to equilibrate. […] The luminescence of the samples was measured using an EnVision Multimode plate reader (Perkin Elmer, Waltham, MA). […]
Compound 12a was conjugated to both targeted and non-binding antibodies using a variety of non-cleavable linkers (12, 17, 19-24) and the resulting ADCs were assessed for their ability to activate THP1-Dual™ reporter cells. […] We also evaluated the ability of these linkers to directly kill cancer cells when conjugated to targeted mAbs binding tumor antigen A or antigen B (CD30).

Where two headings read alike, the source gives them in different places. Where only a bound is given, the exact number is not on record here.

Regarding `CCn1nc(C)cc1C(=O)Nc1nc2cc(C(N)=O)cc(OC)c2n1C/C=C/Cn1c(NC(=O)c2cc(C)nn2CC)nc2cc(C(N)=O)cc(OCCCN(C)C(=O)CCN3C(=O)CC(SC[C@H](N)C(=O)O)C3=O)c21` (stereo partly drawn) [Compound 16, S-(1-(3-((3-((5-carbamoyl-1-((E)-4-(5-carbamoyl-2-(1-ethyl-3-methyl-1H-pyrazole-5-carboxamido)-7-methoxy-1H-benzo[d]imidazol-1-yl)but-2-en-1-yl)-2-(1-ethyl-3-methyl-1H-pyrazole-5-carboxamido)-1H-benzo[d]imidazol-7-yl)oxy)propyl)(methyl)amino)-3-oxopropyl)-2,5-dioxopyrrolidin-3-yl)-L-cysteine], the IC50 is over 1000 nM in [1]; 27 nM in data set [2]; 4 nM in data set [3]; over 1000 nM in data set [4]; over 1000 nM in [5]; 7 nM in [6]. For the same compound, the IC50 was over 1000 nM in data set [7]; over 1000 nM in data set [8]; 29 nM in data set [10]; over 1000 nM in data set [11]; over 1000 nM in [12]. Further, the EC50 in data set [9] (Homo sapiens, THP1-Dual) is 34 nM; in data set [9], 52 nM. In addition, in data set [13], the “direct cytotoxic activity on cancer cell lines” value is “demonstrated direct cytotoxic activity on a subset of cancer cell lines”.

For the origin of these results see US20240123079A1 (Seagen Inc., priority 2021, published 2024).
